Experiments:
Format in all cases: in vivo
Conditions in all cases: foliar, 20-22 days
[1] = tested on: Apera spica-venti (APESV); assay: Postemergence herbicidal activity, greenhouse, APESV
Experimental: (§1) Evaluation of Postemergence Herbicidal Activity of Mixtures in Cereal Crops
(§2) Seeds of the desired test plant species were planted in Sun Gro MetroMix® 306 planting mixture, which typically has a pH of 6.0 to 6.8 and an organic matter content of about 30 percent, in plastic pots with a surface area of 103.2 square centimeters (cm^2). […] The plants were grown for 7-36 days in a greenhouse with an approximate 14 hour photoperiod which was maintained at about 18° C. during the day and 17° C. during the night. Nutrients and water were added on a regular basis and supplemental lighting was provided with overhead metal halide 1000-Watt lamps as necessary. The plants were employed for testing when they reached the second or third true leaf stage.
(§3) Treatments consisted of the benzyl ester of the compound of formula (I) (Compound A as listed in Tables 1-8) and a second cereal herbicide alone and in combination. […] The concentrated stock solutions were diluted to 1.5 mg ai/mL with the addition of 2 volumes of an aqueous mixture containing acetone, water, isopropyl alcohol, DMSO, Agri-dex crop oil concentrate, and Triton® X-77 surfactant in a 64.7:26.0:6.7:2.0:0.7:0.01 v/v ratio. A dilution solution was prepared by mixing 1 volume of 97:3 v/v acetone/DMSO and 2 volumes of an aqueous mixture containing acetone, water, isopropyl alcohol, DMSO, Agri-dex crop oil concentrate, and Triton® X-77 surfactant in a 64.7:26.0:6.7:2.0:0.7:0.01 v/v ratio. Compound requirements are based upon a 12 mL application volume at a rate of 187 liters per hectare (L/ha). […] Formulated compounds were applied to the plant material with an overhead Mandel track sprayer equipped with 8002E nozzles calibrated to deliver 187 L/ha over an application area of 0.503 square meters (m^2) at a spray height of 18 inches (43 cm) above average plant canopy. Control plants were sprayed in the same manner with the solvent blank.
(§4) The treated plants and control plants were placed in a greenhouse as described above and watered by sub-irrigation to prevent wash-off of the test compounds. After 20-22 days, the condition of the test plants as compared with that of the control plants was determined visually and scored on a scale of 0 to 100 percent where 0 corresponds to no injury and 100 corresponds to complete kill.
(§5) Colby's equation was used to determine the herbicidal effects expected from the mixtures (Colby, S. R. 1967. Calculation of the synergistic and antagonistic response of herbicide combinations. Weeds 15:20-22.). Specifically, the following equation was used to calculate the expected activity of mixtures containing two active ingredients, A and B: Expected=A+B−(A×B/100) • A=observed efficacy of active ingredient A at the same concentration as used in the mixture. • B=observed efficacy of active ingredient B at the same concentration as used in the mixture.

[2] = tested on: Alopecurus myosuroides (ALOMY); assay: Postemergence herbicidal activity, greenhouse, ALOMY
Experimental: as §1, §2, §3, §4, §5

[3] = tested on: Chenopodium album (CHEAL); assay: Postemergence herbicidal activity, greenhouse, CHEAL
Experimental: as §1, §2
(§6) Treatments consisted of the benzyl ester of the compound of formula (I) (Compound A as listed in Tables 1-8) and a second cereal herbicide alone and in combination. […]
(§7) The treated plants and control plants were placed in a greenhouse as described above and watered by sub-irrigation to prevent wash-off of the test compounds. After 20-22 days, the condition of the test plants as compared with that of the control plants was determined visually and scored on a scale of 0 to 100 percent where 0 corresponds to no injury and 100 corresponds to complete kill. […]

[4] = tested on: Setaria viridis (SETVI); assay: Postemergence herbicidal activity, greenhouse, SETVI
Experimental: as §1, §2, §3, §4
(§8) Colby's equation was used to determine the herbicidal effects expected from the mixtures (Colby, S. R. 1967. Calculation of the synergistic and antagonistic response of herbicide combinations. Weeds 15:20-22.). […]

[5] = tested on: Salsola tragus (SASKR); assay: Postemergence herbicidal activity, greenhouse, SASKR
Experimental: as §1, §2, §3, §4, §5

[6] = tested on: Veronica persica (VERPE); assay: Postemergence herbicidal activity, greenhouse, VERPE
Experimental: as §1, §2, §3, §4, §5

[7] = tested on: Stellaria media (STEME); assay: Postemergence herbicidal activity, greenhouse, STEME
Experimental: as §1, §2, §3, §4, §5

[8] = tested on: Cirsium arvense (CIRAR); assay: Postemergence herbicidal activity, greenhouse, CIRAR
Experimental: as §1, §2, §3, §4, §5

[9] = tested on: Galium aparine (GALAP); assay: Postemergence herbicidal activity, greenhouse, GALAP
Experimental: as §1, §2, §6, §7

[10] = tested on: Matricaria chamomila (MATCH); assay: Postemergence herbicidal activity, greenhouse, MATCH
Experimental: as §1, §2, §3, §4, §5

[11] = tested on: Lamium purpureum (LAMPU); assay: Postemergence herbicidal activity, greenhouse, LAMPU
Experimental: as §1, §2, §3, §4, §8

[12] = tested on: Triticum aestivum (TRZAW); assay: Postemergence herbicidal activity, greenhouse, TRZAW
Experimental: as §1, §2, §3, §4, §5

[13] = tested on: Papaver rhoeas (PAPRH); assay: Postemergence herbicidal activity, greenhouse, PAPRH
Experimental: as §1, §2, §3, §4, §5

[14] = tested on: Lolium multiflorum subsp. gaudini (LOLMG); assay: Postemergence herbicidal activity, greenhouse, LOLMG
Experimental: as §1, §2, §3, §4, §5

[15] = tested on: Hordeum vulgare (HORVS); assay: Postemergence herbicidal activity, greenhouse, HORVS
Experimental: as §1, §2, §6, §7

[16] = tested on: Viola tricolor (VIOTR); assay: Postemergence herbicidal activity, greenhouse, VIOTR
Experimental: as §1, §2, §3, §4, §5

[17] = tested on: Triticum aestivum (TRZAS); assay: Postemergence herbicidal activity, greenhouse, TRZAS
Experimental: as §1, §2, §6, §7

[18] = tested on: Kochia scoparia (KCHSC); assay: Postemergence herbicidal activity, greenhouse, KCHSC
Experimental: as §1, §2, §3, §4, §5

COc1c(Cl)ccc(-c2nc(C(=O)OCc3ccccc3)c(Cl)c(N)c2F)c1F [Compound A, benzyl ester of 4-amino-3-chloro-5-fluoro-6-(4-chloro-2-fluoro-3-methoxyphenyl)pyridine-2-carboxylic acid]
APESV Obs ([1]; Compound A 5 g ha): 0%
APESV Obs ([1]; Compound A 5 g/ha): 0%
APESV Obs ([1]; Compound A 10 g ha): 0%
APESV Obs ([1]; Compound A 10 g/ha): 0%
ALOMY Obs ([2]; Compound A 5 g ha): 0%
ALOMY Obs ([2]; Compound A 5 g/ha): 0%
ALOMY Obs ([2]; Compound A 10 g ha): 0%
ALOMY Obs ([2]; Compound A 10 g/ha): 0%
CHEAL Obs ([3]; Compound A 2.5 g ha): 50%
CHEAL Obs ([3]; Compound A 5 g ha): 60%
SETVI Obs ([4]; Compound A 5 g ha): 0%
SETVI Obs ([4]; Compound A 10 g ha): 0%
SASKR Obs ([5]; Compound A 2.5 g ha): 10%
SASKR Obs ([5]; Compound A 5 g ai/ha): 75%
SASKR Obs ([5]; Compound A 5 g ha): 60%
SASKR Obs ([5]; Compound A 10 g ai/ha): 78%
VERPE Obs ([6]; Compound A 5 g ai/ha): 13%
VERPE Obs ([6]; Compound A 8.75 g/ha): 50%
VERPE Obs ([6]; Compound A 10 g ai/ha): 25%
STEME Obs ([7]; Compound A 5 g ai/ha): 50%
STEME Obs ([7]; Compound A 8.75 g/ha): 68%
STEME Obs ([7]; Compound A 10 g ai/ha): 63%
CIRAR Obs ([8]; Compound A 2.5 g ha): 10%
CIRAR Obs ([8]; Compound A 5 g ha): 20%
CIRAR Obs ([8]; Compound A 8.75 g/ha): 40%
GALAP Obs ([9]; Compound A 2.5 g ha): 60%
GALAP Obs ([9]; Compound A 5 g ha): 60%
MATCH Obs ([10]; Compound A 2.5 g ha): 0%
MATCH Obs ([10]; Compound A 5 g ai/ha): 20%
MATCH Obs ([10]; Compound A 5 g ha): 10%
MATCH Obs ([10]; Compound A 8.75 g/ha): 20%
MATCH Obs ([10]; Compound A 10 g ai/ha): 40%
LAMPU Obs ([11]; Compound A 2.5 g ha): 80%
LAMPU Obs ([11]; Compound A 5 g ha): 80%
LAMPU Obs ([11]; Compound A 8.75 g/ha): 83%
TRZAW Obs ([12]; Compound A 5 g ai/ha): 7%
TRZAW Obs ([12]; Compound A 10 g ai/ha): 7%
PAPRH Obs ([13]; Compound A 5 g ai/ha): 46%
PAPRH Obs ([13]; Compound A 10 g ai/ha): 48%
LOLMG Obs ([14]; Compound A 5 g ha): 0%
LOLMG Obs ([14]; Compound A 5 g/ha): 0%
LOLMG Obs ([14]; Compound A 10 g ha): 0%
LOLMG Obs ([14]; Compound A 10 g/ha): 0%
HORVS Obs ([15]; Compound A 2.5 g ha): 0%
HORVS Obs ([15]; Compound A 5 g ha): 0%
VIOTR Obs ([16]; Compound A 2.5 g ha): 10%
VIOTR Obs ([16]; Compound A 5 g ai/ha): 27%
VIOTR Obs ([16]; Compound A 5 g ha): 10%
VIOTR Obs ([16]; Compound A 10 g ai/ha): 37%
TRZAS Obs ([17]; Compound A 2.5 g ha): 0%
TRZAS Obs ([17]; Compound A 5 g ha): 5%
KCHSC Obs ([18]; Compound A 2.5 g ha): 20%
KCHSC Obs ([18]; Compound A 5 g ai/ha): 60%
KCHSC Obs ([18]; Compound A 5 g ha): 40%
KCHSC Obs ([18]; Compound A 10 g ai/ha): 57%

COc1nn(C(=O)NS(=O)(=O)c2ccccc2OC(F)(F)F)c(=O)n1C [Flucarbazone-Na, 4,5-dihydro-3-methoxy-4-methyl-5-oxo-N-[[2-(trifluoromethoxy)phenyl]sulfonyl]-1H-1,2,4-triazole-1-carboxamide]
APESV Obs ([1]; Flucarbazone-Na 3.75 g/ha): 33%
APESV Obs ([1]; Flucarbazone-Na 7.5 g/ha): 75%
ALOMY Obs ([2]; Flucarbazone-Na 3.75 g/ha): 8%
ALOMY Obs ([2]; Flucarbazone-Na 7.5 g/ha): 17%
SASKR Obs ([5]; Flucarbazone-Na 3.75 g ai/ha): 10%
SASKR Obs ([5]; Flucarbazone-Na 7.5 g ai/ha): 7%
VERPE Obs ([6]; Flucarbazone-Na 3.75 g ai/ha): 0%
VERPE Obs ([6]; Flucarbazone-Na 7.5 g ai/ha): 0%
VERPE Obs ([6]; Flucarbazone-Na 7.5 g/ha): 0%
STEME Obs ([7]; Flucarbazone-Na 3.75 g ai/ha): 3%
STEME Obs ([7]; Flucarbazone-Na 7.5 g ai/ha): 7%
STEME Obs ([7]; Flucarbazone-Na 7.5 g/ha): 60%
CIRAR Obs ([8]; Flucarbazone-Na 7.5 g/ha): 50%
MATCH Obs ([10]; Flucarbazone-Na 3.75 g ai/ha): 10%
MATCH Obs ([10]; Flucarbazone-Na 7.5 g ai/ha): 10%
MATCH Obs ([10]; Flucarbazone-Na 7.5 g/ha): 30%
TRZAW Obs ([12]; Flucarbazone-Na 3.75 g ai/ha): 2%
TRZAW Obs ([12]; Flucarbazone-Na 7.5 g ai/ha): 7%
PAPRH Obs ([13]; Flucarbazone-Na 3.75 g ai/ha): 0%
PAPRH Obs ([13]; Flucarbazone-Na 7.5 g ai/ha): 0%
LOLMG Obs ([14]; Flucarbazone-Na 3.75 g/ha): 0%
LOLMG Obs ([14]; Flucarbazone-Na 7.5 g/ha): 0%
VIOTR Obs ([16]; Flucarbazone-Na 3.75 g ai/ha): 7%
VIOTR Obs ([16]; Flucarbazone-Na 7.5 g ai/ha): 7%

Source: patent US8652999B1, “Herbicidal compositions comprising 4-amino-3-chloro-5-fluoro-6-(4-chloro-2-fluoro-3-methoxyphenyl)pyridine-2-carboxylic acid or a derivative thereof and a sulfonylaminocarbonyltriazolinone” (Dow AgroSciences, LLC., priority 2012, dated 2014)
